Measured values taken from ChEMBL document CHEMBL3797188, “Piperidine derivatives as nonprostanoid IP receptor agonists 2” (Bioorg Med Chem Lett, 2016).

Tests used:
[1] = Antiplatelet activity in human platelet rich plasma assessed as inhibition of ADP-induced platelet aggregation; type: functional, cell-free
Prostacyclin receptor = Prostacyclin receptor (Homo sapiens, UniProt P43119); assay: Binding affinity to human IP receptor
[2] = biological target: T1, Prostaglandin E2 receptor EP3 subtype (Homo sapiens, UniProt P43115); assay: Binding affinity to human EP3 receptor
T1 sequence (P43115 whole entry): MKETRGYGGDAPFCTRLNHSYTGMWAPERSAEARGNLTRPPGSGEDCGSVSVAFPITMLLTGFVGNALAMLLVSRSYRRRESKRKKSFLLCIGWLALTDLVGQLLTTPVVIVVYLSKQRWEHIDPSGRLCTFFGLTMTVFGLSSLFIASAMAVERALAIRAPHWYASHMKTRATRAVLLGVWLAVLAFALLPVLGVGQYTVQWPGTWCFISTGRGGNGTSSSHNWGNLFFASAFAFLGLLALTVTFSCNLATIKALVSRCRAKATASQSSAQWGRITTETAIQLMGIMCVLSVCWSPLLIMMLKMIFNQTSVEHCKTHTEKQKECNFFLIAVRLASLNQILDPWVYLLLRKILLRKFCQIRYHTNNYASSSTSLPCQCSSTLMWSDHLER

[3] = Oral bioavailability in fasted dog at 0.5 mg/kg; type: ADME, organism-based, Canis lupus familiaris; conditions: in vivo
Thromboxane A2 receptor = biological target: T2, Thromboxane A2 receptor (Homo sapiens, UniProt P21731); assay: Binding affinity to human TP receptor
T2 sequence (P21731 whole entry): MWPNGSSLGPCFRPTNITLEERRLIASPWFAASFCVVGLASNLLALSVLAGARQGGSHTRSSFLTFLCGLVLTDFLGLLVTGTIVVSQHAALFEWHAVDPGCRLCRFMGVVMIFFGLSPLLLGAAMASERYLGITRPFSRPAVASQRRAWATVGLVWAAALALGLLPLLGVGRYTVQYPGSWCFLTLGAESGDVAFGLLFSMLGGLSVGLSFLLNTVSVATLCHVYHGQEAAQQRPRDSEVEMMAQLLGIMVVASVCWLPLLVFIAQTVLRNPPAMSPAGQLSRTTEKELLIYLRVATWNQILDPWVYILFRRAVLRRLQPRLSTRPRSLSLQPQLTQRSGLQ

[4] = Cmax in fasted dog at 0.5 mg/kg, po; type: ADME, organism-based, Canis lupus familiaris; design: dose 0.5 mg/kg, route oral; conditions: in vivo
[5] = biological target: Prostaglandin F2-alpha receptor (Homo sapiens, UniProt P43088); assay: Binding affinity to human FP receptor
[6] = biological target: Prostaglandin E2 receptor EP2 subtype (Homo sapiens, UniProt P43116); assay: Binding affinity to human EP2 receptor
[7] = biological target: Prostaglandin E2 receptor EP4 subtype (Homo sapiens, UniProt P35408); assay: Binding affinity to human EP4 receptor
Prostaglandin E2 receptor EP4 subtype, sequence (P35408 whole entry): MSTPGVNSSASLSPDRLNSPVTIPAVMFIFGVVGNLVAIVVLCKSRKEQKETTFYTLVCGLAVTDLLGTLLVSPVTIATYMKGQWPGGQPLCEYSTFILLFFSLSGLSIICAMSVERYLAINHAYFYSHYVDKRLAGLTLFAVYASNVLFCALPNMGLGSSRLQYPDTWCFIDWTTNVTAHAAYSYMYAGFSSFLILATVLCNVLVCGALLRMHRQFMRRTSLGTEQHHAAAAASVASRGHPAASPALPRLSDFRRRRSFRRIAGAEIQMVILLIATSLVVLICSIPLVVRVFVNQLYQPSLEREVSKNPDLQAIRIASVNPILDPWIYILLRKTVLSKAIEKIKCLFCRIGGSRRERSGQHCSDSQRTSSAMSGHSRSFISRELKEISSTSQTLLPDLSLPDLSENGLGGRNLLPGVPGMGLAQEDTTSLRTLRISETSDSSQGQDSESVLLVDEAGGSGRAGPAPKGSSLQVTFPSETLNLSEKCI

Prostaglandin E2 receptor EP2 subtype, sequence (P43116 whole entry): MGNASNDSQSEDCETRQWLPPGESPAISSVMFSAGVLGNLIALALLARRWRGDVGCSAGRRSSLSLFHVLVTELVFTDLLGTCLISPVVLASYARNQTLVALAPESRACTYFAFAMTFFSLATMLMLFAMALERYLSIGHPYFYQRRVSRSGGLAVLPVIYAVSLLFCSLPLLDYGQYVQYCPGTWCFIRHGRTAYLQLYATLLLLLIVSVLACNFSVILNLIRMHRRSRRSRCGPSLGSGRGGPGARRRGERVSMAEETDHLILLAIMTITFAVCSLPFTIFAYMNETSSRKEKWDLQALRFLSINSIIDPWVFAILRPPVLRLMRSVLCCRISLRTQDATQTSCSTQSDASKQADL
Prostaglandin F2-alpha receptor, sequence (P43088 whole entry): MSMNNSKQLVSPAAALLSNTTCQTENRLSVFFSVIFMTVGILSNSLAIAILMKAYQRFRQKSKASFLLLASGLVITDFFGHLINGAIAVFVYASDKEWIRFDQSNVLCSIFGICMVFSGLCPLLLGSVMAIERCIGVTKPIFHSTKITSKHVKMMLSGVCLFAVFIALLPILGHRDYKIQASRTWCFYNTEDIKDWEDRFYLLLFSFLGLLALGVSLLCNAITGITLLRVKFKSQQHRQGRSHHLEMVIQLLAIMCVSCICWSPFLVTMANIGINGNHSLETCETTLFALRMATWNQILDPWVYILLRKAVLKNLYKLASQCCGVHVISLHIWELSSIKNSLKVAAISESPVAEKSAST
Prostacyclin receptor, sequence (P43119 whole entry): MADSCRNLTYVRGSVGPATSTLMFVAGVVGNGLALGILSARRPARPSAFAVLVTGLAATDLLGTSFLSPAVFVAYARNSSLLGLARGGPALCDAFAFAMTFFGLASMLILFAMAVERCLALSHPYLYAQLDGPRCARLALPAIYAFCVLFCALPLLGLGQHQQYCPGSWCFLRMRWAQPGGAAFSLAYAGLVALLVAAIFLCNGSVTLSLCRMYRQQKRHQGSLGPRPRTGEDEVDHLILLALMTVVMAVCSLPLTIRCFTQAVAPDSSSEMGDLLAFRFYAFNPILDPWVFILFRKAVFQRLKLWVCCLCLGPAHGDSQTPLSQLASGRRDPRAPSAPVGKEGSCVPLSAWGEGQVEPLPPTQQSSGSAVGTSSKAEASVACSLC

| Structure (SMILES) | IC50 [1] | other results |
| --- | --- | --- |
| O=C(O)COC1CCN(CCN(C(=O)c2ccccc2)c2ccc(Cl)cc2)CC1 | 440 nM | – |
| Cc1ccc(N(CCN2CCC(OCC(=O)O)CC2)C(=O)c2ccccc2)cc1 | 220 nM | – |
| Cc1ccc(N(CCN2CCC(OCC(=O)O)CC2)C(=O)c2ccc(C(F)(F)F)cc2)cc1 | > 10000 nM | – |
| COc1ccc(OC)c(C(=O)N(CCN2CCC(OCC(=O)O)CC2)c2ccc(C)cc2)c1 | > 3000 nM | – |
| Cc1ccc(N(CCN2CCC(OCC(=O)O)CC2)C(=O)c2cccc(C(F)(F)F)c2)cc1 | 20000 nM | – |
| O=C(O)COC1CCN(CCN(C(=O)c2cccc(C(F)(F)F)c2)c2ccc(Cl)cc2)CC1 | > 10000 nM | – |
| Cc1ccc(N(CCN2CCC(OCC(=O)O)CC2)C(=O)c2cccc(Cl)c2)cc1 | 100 nM | – |
| Cc1ccc(N(CCN2CCC(OCC(=O)O)CC2)C(=O)c2ccc(-c3ccccc3)cc2)cc1 | > 10000 nM | – |
| COc1ccc(C(=O)N(CCN2CCC(OCC(=O)O)CC2)c2ccc(Cl)cc2)cc1 | 3100 nM | – |
| COc1ccc(C(=O)N(CCN2CCC(OCC(=O)O)CC2)c2ccc(C)cc2)cc1OC | > 3000 nM | – |
| Cc1ccc(N(CCN2CCC(OCC(=O)O)CC2)C(=O)c2ccc(Cl)cc2)cc1 | 690 nM | – |
| Cc1ccc(N(CCN2CCC(OCC(=O)O)CC2)C(=O)c2ccc(F)cc2)cc1 | 970 nM | – |
| O=C(O)COC1CCN(CCN(C(=O)c2ccc(F)cc2)c2ccc(Cl)cc2)CC1 | 2000 nM | – |
| O=C(O)COC1CCN(CCN(C(=O)c2cccc(Cl)c2)c2ccc(Cl)cc2)CC1 | 350 nM | – |
| COc1ccc(C(=O)N(CCN2CCC(OCC(=O)O)CC2)c2ccc(C)cc2)cc1 | 1200 nM | – |
| O=C(O)COC1CCN(CCN(C(=O)c2ccc(C(F)(F)F)cc2)c2ccc(Cl)cc2)CC1 | > 10000 nM | – |
| Cc1ccc(N(CCN2CCC(OCC(=O)O)CC2)C(=O)c2ccc3c(c2)OCO3)cc1.Cl.O | – | Ki (Prostacyclin receptor): 400 nM; Ki [2]: > 50000 nM; bioavailability [3]: 76%; Ki (Thromboxane A2 receptor): > 50000 nM; Cmax [4]: 130 ng/mL; Ki [5]: > 50000 nM; Ki [6]: > 50000 nM; Ki [7]: > 50000 nM |
| COc1cccc(C(=O)N(CCN2CCC(OCC(=O)O)CC2)c2ccc(C)cc2)c1 | 32 nM | – |
| Cc1ccc(N(CCN2CCC(OCC(=O)O)CC2)C(=O)c2ccc3c(c2)OCO3)cc1 | 21 nM | – |
| Cc1ccc(N(CCN2CCC(OCC(=O)O)CC2)C(=O)c2cccc(C)c2)cc1 | 160 nM | – |
| COc1cccc(C(=O)N(CCN2CCC(OCC(=O)O)CC2)c2ccc(Cl)cc2)c1 | 74 nM | – |
| O=C(O)COC1CCN(CCN(C(=O)c2ccc(-c3ccccc3)cc2)c2ccc(Cl)cc2)CC1 | > 10000 nM | – |
| Cc1cccc(C(=O)N(CCN2CCC(OCC(=O)O)CC2)c2ccc(Cl)cc2)c1 | 310 nM | – |
| O=C(O)COC1CCN(CCN(C(=O)c2cccc(F)c2)c2ccc(Cl)cc2)CC1 | 340 nM | – |
| COc1cccc(C(=O)N(CCN2CCC(OCC(=O)O)CC2)c2ccc(C)cc2)c1OC | 1600 nM | – |
| COc1cc(OC)cc(C(=O)N(CCN2CCC(OCC(=O)O)CC2)c2ccc(C)cc2)c1 | 530 nM | – |
| Cc1ccc(N(CCN2CCC(OCC(=O)O)CC2)C(=O)c2cccc(F)c2)cc1 | 160 nM | – |
| O=C(O)COC1CCN(CCN(C(=O)c2ccc(Cl)cc2)c2ccc(Cl)cc2)CC1 | 1500 nM | – |
